Patent US20090042208A1, “Assays for erectile and bladder dysfunction and vascular health” (priority 2007, published 2009)
Marks after values point to notes of the source that are not given here. Ends that are not written are not given here.

Key:
retired breeder rats = experiment: Longest visually observed erection and ICP/BP after tadalafil, pVAX-hSlo or both; assay type: in vivo, rat; conditions: tadalafil 2.5 mg/kg orally 2 h before; pVAX-hSlo 1000 μg intracorporal 1 month before
Protocol: (§1) In a second set of animals (retired breeder, male Sprague Dawley rats) in which the effect of tadalafil was to be measured alone or in combination with pVAX-hSlo, 1000 μg pVAX-hSlo was administered to 10 animals 1 month prior to determination of erectile function and gene expression. Five of these animals were treated with 2.5 mg/kg of tadalafil orally two hours prior to ICP/BP measurement. A third group of five animals were untreated controls, and the fourth group of five animals treated with 2.5 mg/kg of tadalafil orally. two hours prior to ICP/BP measurement.
ICP/BP measurement. ICP/BP was measured essentially as previously described (Christ et al. 1998; Melman et al. 2003). Briefly, animals were anesthetized by intraperitoneal injection of pentobarbital sodium (35 mg/kg). An incision was made in the perineum, and the corpus cavernosum exposed. The cavernous nerves were identified adjacent to the prostate gland. Direct electrostimulation of a cavernous nerve was performed with a delicate stainless steel bipolar hook electrode attached to the multi-jointed clamp. […] Prior to electrostimulation the longest visually observed erection was measured. […] The changes in ICP and systemic BP were recorded at each level of neurostimulation. The mean ICP/BP, standard deviation, and analysis of variance were calculated for each of the treatment groups.

[1] = tested on: Vcsa1 and Slo transcripts in corporal tissue; experiment: Quantitative RT-PCR of Vcsa1 and Slo transcripts in corpora after tadalafil, pVAX-hSlo or both; assay type: in vivo, rat; conditions: tadalafil 2.5 mg/kg orally 2 h before; pVAX-hSlo 1000 μg 1 month before; or both
Protocol: as §1
RNA Isolation from corporal tissue. Following the ICP/BP measurement, animals were euthanized and corporal tissues isolated and flash frozen in liquid nitrogen. […]
Measurement of gene expression by quantitative RT-PCR. RNA extracted either from corporal tissue or transfected corporal smooth muscle cells was used to analyze gene expression by quantitative RT-PCR. […] Real-time quantitative PCR analysis was performed using the 7300 real-time PCR system (Applied Biosystems, Foster City, Calif.).
The PCR reactions for all samples were performed in 96-well plates, with 2 μl cDNA, 100 nM each primer, and 12.5 μl of Sybr Green in a 25-μl reaction volume. […] The relative quantified value for each target gene in corpora of treated rats is expressed as 2^−(Ct−Cc) (Ct and Cc are the mean threshold cycle differences after normalizing to RPL24). […]

[2] = tested on: isolated corporal smooth muscle tissue; experiment: Contractility (relaxation rate) of isolated corporal smooth muscle strips; set-up: species or system rat
Protocol: Studies of contractility of isolated smooth muscle tissue were carried out as described previously (Chang et al. 2003, Spektor et al. 2002). Four longitudinal strips of cavernous tissue from the crura of old animals (n=4) were dissected free from the tunica albuginea and were suspended between two small surgical hooks in a tension-measuring device (Multimyograph Model 610M, Copenhagen, Denmark) that allows simultaneous monitoring of four muscle strips. Tissue was equilibrated for 90 min in 6 ml Krebs-Henseleit buffer composed of 110 mM NaCl, 4.8 mM. KCl, 2.5 mM CaCl2, 1.2 mM MgSO4, 1.2 mM KH2PO4, 25 mM NaHCO3, 11 mM glucose, and dextrose in glass-distilled water. Organ chambers were maintained at 37° C. and continuously bubbled with 95% O2 and 5% CO2 to maintain a mean pH of 7.4±0.1. Continuous recording of tension developed by the muscle strips was carried out using Powerlab software (Chart version 4.2.4, ADinstruments, CO) on a dedicated computer. Strips of corpus cavernosum first were precontracted with phenylephrine (10^−6 M). Then, relaxation was induced using CNP (10^−6 M). […] Results from four separate strips from four animals were averaged and the significance determined by the Student's t test.

[3] = tested on: retired breeder male Sprague-Dawley rats; experiment: ICP/BP and blood pressure after intracorporal injection of sialorphin; assay type: in vivo, rat; conditions: 10 and 100 μg intracorporal
Protocol: Experiments were carried out on 9- to 10-month-old retired breeder male Sprague-Dawley rats weighing more than 500 g (as described in Melman et al. 2005). When measurements were complete, animals were killed by placement within a CO2 gas chamber. All protocols were approved by the Animal Use Committee and Internal Review board at the Albert Einstein College of Medicine.
The sialorphin peptide (2 mg) was dissolved in 0.5 ml of 0.01 N acetic acid and then was vortexed, and the solution was centrifuged for a few seconds at approximately 1000 g and 4° C. (to gather all the liquid at the bottom of the tube). The stock solution was stored in 25-μl aliquots (100 μg) at −70° C. Before use, the stock was thawed on ice, and phosphate buffered saline (pH 7.4) was added to bring the volume to 150 μl.
Intracorporal microinjection of sialorphin into rat corporal tissue was modified from previously described procedures, where plasmids were injected intracorporeally to investigate their effect on the ICP/BP ratio (Christ et al. 1998, 2004; Melman et al. 2005). […] The changes in ICP and systemic BP were recorded at both levels of neurostimulation. […] Mean ICP/BP (n=7) and standard deviation were calculated before and after treatment. Significant change in the ICP/BP value from that of the pretreatment group was determined by Student's t test.

## CN1CC(=O)N2[C@H](c3ccc4c(c3)OCO4)c3[nH]c4ccccc4c3C[C@@H]2C1=O [tadalafil]
Retired breeder rats
  Longest erection time, difference to untreated control groups: about 100 seconds
  Longest measured erection time: approximately 210 seconds
[1]
  Vcsa1 expression increase versus untreated animals: approximately 4 fold

## C-type natriuretic peptide [CNP]
[2]; 1 μM CNP, versus carrier
  Increase in the relaxation rate of the tissue: 67%
[2]; strips precontracted with 1 μM phenylephrine, 1 μM CNP and/or 1 μg/ml sialorphin
  Rate of Tension Loss: 0.087* g/min

## QHNPR [sialorphin, QHNPR]
[3]
  Effect on systemic blood pressure: no effect
